Usually IC50 stands for the midpoint of a concentration-inhibition curve.

The record followed here is patent publication EP3478687B1 (Daewoong Pharmaceutical Co., Ltd., priority 2016, dated 2018).

For assay [1], the target named is T1, Recombinant purified human BTK (Homo sapiens, UniProt Q06187).
T1 construct: purchased Promega V9071
Put plainly: BTK kinase inhibitory activity, ADP-Glo kinase assay (Promega V9071). Type of assay: biochemical. The note with it: ATP 10 uM, 8 ng BTK per reaction, 1 hour 30 °C, chemiluminescence. In outline: (§1)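 IC50 values come from ADP-Glo luminescence after 1 h kinase reactions at 30 °C in 1% DMSO on 0.2 µg/µL Poly(Glu4,Tyr1) substrate. ATP was 10 µM for BTK (8 ng, buffer containing MnCl2) and 5 µM for JAK3 (4 ng), in Tris-Cl pH 7.5/MgCl2/BSA/DTT.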
(In general: ADP-Glo first removes unused ATP, then detects ADP through luciferase.)

The target of assay [2] is T2, Recombinant purified human JAK3 (Homo sapiens, UniProt P52333).
T2 construct: purchased Promega V9441
T2 sequence (P52333 1-1124): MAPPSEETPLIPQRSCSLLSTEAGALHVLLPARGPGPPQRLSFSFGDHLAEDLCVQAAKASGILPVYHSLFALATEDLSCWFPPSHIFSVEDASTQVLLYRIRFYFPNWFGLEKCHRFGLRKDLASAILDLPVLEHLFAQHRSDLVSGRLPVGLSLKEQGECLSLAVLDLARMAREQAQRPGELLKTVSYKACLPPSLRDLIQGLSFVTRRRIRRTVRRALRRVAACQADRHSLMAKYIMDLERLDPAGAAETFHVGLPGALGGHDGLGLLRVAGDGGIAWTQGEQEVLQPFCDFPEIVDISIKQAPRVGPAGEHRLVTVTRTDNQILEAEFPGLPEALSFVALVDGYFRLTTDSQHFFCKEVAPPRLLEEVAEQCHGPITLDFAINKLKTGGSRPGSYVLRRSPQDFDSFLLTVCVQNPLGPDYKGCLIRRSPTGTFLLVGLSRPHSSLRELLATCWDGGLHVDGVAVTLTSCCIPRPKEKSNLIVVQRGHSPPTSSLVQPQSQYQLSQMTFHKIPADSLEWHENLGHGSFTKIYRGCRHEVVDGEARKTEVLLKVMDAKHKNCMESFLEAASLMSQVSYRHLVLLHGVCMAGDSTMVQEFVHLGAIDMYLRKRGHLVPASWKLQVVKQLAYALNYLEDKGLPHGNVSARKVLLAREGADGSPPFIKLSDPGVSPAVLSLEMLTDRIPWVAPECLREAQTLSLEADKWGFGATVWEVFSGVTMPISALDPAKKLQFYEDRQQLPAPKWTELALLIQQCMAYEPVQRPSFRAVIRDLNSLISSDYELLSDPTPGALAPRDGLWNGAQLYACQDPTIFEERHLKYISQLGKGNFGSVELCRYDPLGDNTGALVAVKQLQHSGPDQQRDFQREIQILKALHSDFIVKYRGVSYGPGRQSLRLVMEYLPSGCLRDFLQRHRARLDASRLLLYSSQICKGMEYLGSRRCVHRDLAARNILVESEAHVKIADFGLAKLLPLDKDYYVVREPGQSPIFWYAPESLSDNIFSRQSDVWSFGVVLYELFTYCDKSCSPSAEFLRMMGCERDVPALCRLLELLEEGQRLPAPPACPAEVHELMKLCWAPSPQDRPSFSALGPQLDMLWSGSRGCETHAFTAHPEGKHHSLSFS
Briefly: JAK3 kinase inhibitory activity, ADP-Glo kinase assay (Promega V9441). The assay is classed as biochemical. The note with it: ATP 5 uM, 4 ng JAK3 per reaction, 1 hour 30 °C, chemiluminescence. The essentials:
as §1

The structures appear in SMILES notation.

T1 sequence (Q06187 whole entry): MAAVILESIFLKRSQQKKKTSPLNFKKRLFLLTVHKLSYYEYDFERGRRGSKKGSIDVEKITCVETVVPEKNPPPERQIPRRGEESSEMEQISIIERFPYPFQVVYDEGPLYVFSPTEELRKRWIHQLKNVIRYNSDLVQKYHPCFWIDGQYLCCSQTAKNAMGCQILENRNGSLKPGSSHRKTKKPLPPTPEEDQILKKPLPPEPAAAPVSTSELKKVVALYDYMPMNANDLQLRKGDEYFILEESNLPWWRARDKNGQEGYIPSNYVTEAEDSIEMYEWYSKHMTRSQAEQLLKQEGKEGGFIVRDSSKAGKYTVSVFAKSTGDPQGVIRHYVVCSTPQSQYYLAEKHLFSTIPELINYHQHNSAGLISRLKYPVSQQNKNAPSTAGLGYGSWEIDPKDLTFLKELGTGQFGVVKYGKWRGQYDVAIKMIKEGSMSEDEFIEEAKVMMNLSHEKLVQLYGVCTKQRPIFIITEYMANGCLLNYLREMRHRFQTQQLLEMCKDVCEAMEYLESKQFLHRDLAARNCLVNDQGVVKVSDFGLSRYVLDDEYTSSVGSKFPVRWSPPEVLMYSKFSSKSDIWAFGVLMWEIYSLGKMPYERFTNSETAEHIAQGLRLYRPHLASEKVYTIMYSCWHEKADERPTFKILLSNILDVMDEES

As to `C=CC(=O)N1CCC[C@@H](Nc2nc(Nc3cnn(C(C)(C)C)c3)nc3[nH]cc(Cl)c23)C1` [Example 70, (R)-1-(3-((2-((1-(tert-butyl)-1H-pyrazol-4-yl)amino)-5-chloro-7H-pyrrolo[2,3-d]pyrimidin-4-yl)amino)piperidin-1-yl)prop-2-en-1-one], the IC50 amounted to 2.3 nM in assay [1] and 0.2 nM in assay [2].

As for `C=CC(=O)N1CCC[C@@H](Nc2nc(Nc3cnn(C4CCOCC4)c3)nc3[nH]ncc23)C1` [Example 71, (R)-1-(3-((6-((1-(tetrahydro-2H-pyran-4-yl)-1H-pyrazol-4-yl)amino)-1H-pyrazolo[3,4-d]pyrimidin-4-yl)amino)piperidin-1-yl)prop-2-en-1-one], the IC50 in assay [1] was 1.3 nM; in assay [2] it was 2.8 nM.

Regarding `C=CC(=O)N1CCC[C@@H](Nc2nc(Nc3cnn(CCN4CCOCC4)c3)nc3[nH]ncc23)C1` [Example 72, (R)-1-(3-((6-((1-(2-morpholinoethyl)-1H-pyrazol-4-yl)amino)-1H-pyrazolo[3,4-d]pyrimidin-4-yl)amino)piperidin-1-yl)prop-2-en-1-one], the IC50 in assay [1] was found to be 1.1 nM; in assay [2], 2.2 nM.

For the molecule `C=CC(=O)N1CCC[C@@H](Nc2nc(Nc3cnn(CCC)c3)nc3[nH]ncc23)C1` [Example 73, (R)-1-(3-((6-((1-propyl-1H-pyrazol-4-yl)amino)-1H-pyrazolo[3,4-d]pyrimidin-4-yl)amino)piperidin-1-yl)prop-2-en-1-one], the values for the IC50 in assay [1] and in assay [2] were 1.1 nM and 4.4 nM, respectively.

As to `C=CC(=O)N1CCC[C@@H](Nc2nc(Nc3cnn(CCOC)c3)nc3[nH]ncc23)C1` [Example 74, (R)-1-(3-((6-((1-(2-methoayethyl)-1H-pyrazol-4-yl)amino)-1H-pyrazolo[3,4-d]pyrimidin-4-yl)amino)piperidin-1-yl)prop-2-en-1-one], the IC50 in assay [1] was found to be 1.7 nM; in assay [2], 5.4 nM.

Regarding `C=CC(=O)N1CCC[C@@H](Nc2nc(Nc3cc(C)ns3)nc3[nH]ccc23)C1` [Example 75, (R)-1-(3-((2-((3-methylisothiazol-5-yl)amino)-7H-pyrrolo[2,3-d]pyrimidin-4-yl)amino)piperidin-1-yl)prop-2-en-1-one], the IC50 in assay [1] came out at 4.1 nM; in assay [2], 0.2 nM.

Consider `C=CC(=O)N1CC[C@@H](F)[C@@H](Nc2nc(Nc3cnn(CC)c3)nc3[nH]ccc23)C1` [Example 76, 1-((3S,4R)-3-((2-((1-ethyl-1H-pyrazol-4-yl)amino)-7H-pyrrolo[2,3-d]pyrimidin-4-yl)amino)-4-fluoropiperidin-1-yl)prop-2-en-1-one], for which the IC50 in assay [1] stood at 1 nM; in assay [2], 0.3 nM.

Turning to `C=CC(=O)N1CC[C@@H](F)[C@@H](Nc2nc(Nc3cnn(CC)c3)nc3[nH]ncc23)C1` [Example 77, 1-((3S,4R)-3-((6-((1-ethyl-1H-pyrazol-4-yl)amino)-1H-pyrazolo [3,4-d]pyrimidin-4-yl)amino)-4-fluoropiperidin-1-yl)prop-2-en-1-one], the figures for the IC50 in assay [1] and in assay [2] were 1.1 nM and 6 nM, respectively.

Turning to `C=CC(=O)N1CCC[C@@H](Nc2nc(Nc3cnn(C4CC4)c3)nc3[nH]cc(C)c23)C1` [Example 78, (R)-1-(3-((2-((1-cyclopropyl-1H-pyrazol-4-yl)amino)-5-methyl-7H-pyrrolo[2,3-d]pyrimidin-4-yl)amino)piperidin-1-yl)prop-2-en-1-one], the IC50 in assay [1] turned out to be 11.5 nM; in assay [2], 0.7 nM.

As for `C=CC(=O)N1CCC[C@@H](Nc2nc(Nc3cnn(CC)c3)nc3[nH]cc(C)c23)C1` [Example 79, (R)-1-(3-((2-((1-ethyl-1H-pyrazol-4-yl)amino)-5-methyl-7H-pyrrolo[2,3-d]pyrimidin-4-yl)amino)piperidin-1-yl)prop-2-en-1-one], the IC50 was found to be 9.2 nM in assay [1] and 0.4 nM in assay [2].

`C=CC(=O)N1CCC[C@@H](Nc2nc(Nc3ccc(-n4nc(C)cc4C)cc3)nc3[nH]cc(C)c23)C1` [Example 80, (R)-1-(3-((2-((4-(3,5-dimethyl-1H-pyrazol-1-yl)phenyl)amino)-5-methyl-7H-pyrrolo[2,3-d]pyrimidin-4-yl)amino)piperidin-1-yl)prop-2-en-1-one]: the values for the 50% inhibitory concentration (IC50) in assay [1] and in assay [2] were 33.3 nM and 8.4 nM, respectively.

With `C=CC(=O)N1CCC[C@@H](Nc2nc(Nc3ccc4ncsc4c3)nc3[nH]cc(C)c23)C1` [Example 81, (R)-1-(3-((2-(benzo[d]thiazol-6-ylamino)-5-methyl-7H-pyrrolo[2,3-d]pyrimidin-4-yl)amino)piperidin-1-yl)prop-2-en-1-one], the results for the IC50 in assay [1] and in assay [2] were 25.5 nM and 3.8 nM, respectively.

For `C=CC(=O)N1CCC[C@@H](Nc2nc(Nc3cnn(CC)c3)nc3[nH]cc(F)c23)C1` [Example 82, (R)-1-(3-((2-((1-ethyl-1H-pyrazol-4-yl)amino)-5-fluoro-7H-pyrrolo[2,3-d]pyrimidin-4-yl)amino)piperidin-1-yl)prop-2-en-1-one], the IC50 in assay [1] is 0.9 nM; in assay [2], 0.3 nM.

`C=CC(=O)N1CCC[C@@H](Nc2nc(Nc3cc(C)ns3)nc3[nH]cc(F)c23)C1` [Example 83, (R)-1-(3-((5-2-((3-methylisothiazol-5-yl)amino)-7H-pyrrolo[2,3-d]pyrimidin-4-yl)amino)piperidin-1-yl)prop-2-en-1-one]: the IC50 is 3.4 nM in assay [1] and 1.2 nM in assay [2].

`C=CC(=O)N1CC[C@@H](C)[C@@H](Nc2nc(Nc3cnn(CC)c3)nc3[nH]cc(F)c23)C1` [Example 84, 1-((3R,4R)-3-((2-((1-ethyl-1H-pyrazol-4-yl)amino)-5-fluoro-7H-pyrrolo[2,3-d]pyrimidin-4-yl)amino)-4-methylpiperidin-1-yl)prop-2-en-1-one]: the half-maximal inhibitory concentration (IC50) was determined as 6.6 nM in assay [1] and 3.8 nM in assay [2].

Regarding `C=CC(=O)N1CCC[C@@H](Sc2nc(Nc3cnn(CC)c3)nc3[nH]cc(F)c23)C1` [Example 85, (R)-1-(3-((2-((1-ethyl-1H-pyrazol-4-yl)amino)-5-fluoro-7H-pyrrolo[2,3-d]pyrimidin-4-yl)thio)piperidin-1-yl)prop-2-en-1-one], the concentration for half-maximal inhibition (IC50) in assay [1] was 2.2 nM; in assay [2], 1.5 nM.

With `C=CC(=O)N1CC[C@@H](F)[C@@H](Nc2nc(Nc3cnn(CC)c3)nc3[nH]cc(F)c23)C1` [Example 86, 1-((3S,4R)-3-((2-((1-ethyl-1H-pyrazol-4-yl)amino)-5-fluoro-7H-pyrrolo[2,3-d]pyrimidin-4-yl)amino)-4-fluoropiperidin-1-yl)prop-2-en-1-one], the IC50 worked out at 1 nM in assay [1] and 0.4 nM in assay [2].

In the case of `C=CC(=O)N1CCC[C@@H](N(C)c2nc(Nc3cnn(CC)c3)nc3[nH]cc(F)c23)C1` [Example 87, (R)-1-(3-((2-((1-ethyl-1H-pyrazol-4-yl)amino)-5-fluoro-7H-pyrrolo[2,3-d]pyrimidin-4-yl)(methyl)amino)piperidin-1-yl)prop-2-en-1-one], the IC50 in assay [1] came to 42.2 nM; in assay [2], 16.4 nM.

As for `C=CC(=O)N1CCC[C@@H](Nc2nc(Nc3cnn(CC)c3)nc3[nH]cc(C#N)c23)C1` [Example 88, (R)-4-((1-acryloylpiperidin-3-yl)amino)-2-((1-ethyl-1H-pyrazol-4-yl)amino)-7H-pyrrolo [2,3-d] pyrim idine-5-carbonitrile], the IC50 in assay [1] was 1.1 nM; in assay [2], 0.2 nM.
